Data set [1] has as its system prostatic stroma and stromal HA. Briefly: Prostatic histology: stromal HA (biotinylated HABP) and stromal proliferation (H&E). It counts as in vivo. The settings on record: rat prostate stroma; substance alone (PEGPH20 0.82 mg/kg iv, day 12; TE 25 mg/rat im days 0 and 8, day 18). The procedure:
In this example, the effect of PEGPH20 on prostatic stroma and stromal HA of normal and TE-induced prostatic hyperplasia rats was analyzed by prostatic histology, including hematoxylin and eosin staining and IHC staining. Stromal proliferation was determined by visually comparing the size of the stroma. Testosterone enanthate was administered by intramuscular injection and PEGPH20 (diluted in normal saline) and control were administered intravenously. Following treatment, the animals were sacrificed and the ventral lobes of the prostates were harvested for analysis.
Prostate tissues were fixed in 10% neutral buffered formalin in PBS for 24 hours, dehydrated with gradient ethanol, cleared with xylene, and embedded in paraffin. Paraffin block was cut to 5 μm sections. Tissue sections were dewaxed, rehydrated and processed by standard hematoxylin and eosin (H&E) staining. Histochemical localization of HA was carried out using a biotinylated-HABP probe (bHABP, Cat#400763-1A, Associates of Cape Cod, Mass.). Sections were deparaffinized in xylene, 2×5 min, hydrated in 100% ethanol, for 2×3 min, and in 95% ethanol for 1 min, then rinsed in distilled water, incubated at 37° C. for 20 min in a trypsin solution, and rinsed in PBS for 2×2 min. […]

The conditions of data set [2]: cited from earlier work.
Another data set deals with prostate stromal cells. Briefly: TUNEL assay, apoptosis of stromal cells. Type of data set: in vivo, rat. The method, then: In this example, the ability of PEGPH20 to cause apoptosis of stromal cells was analyzed. In situ detection of cell apoptosis by TUNEL assay was based on a reaction for in situ terminal deoxynucleotidyl-transferase (TdT)-mediated biotinylated UTP nick-end labelling (TUNEL). This was essentially performed by using the FragEL DNA (Cat# QIA39-1EA, Calbiochem, Gibbstown, N.J.) according to the manufacturer's directions. In brief, de-paraffinized tissue sections were treated with proteinase K (0.02 mg/mL, Cat#25530, Invitrogen, Carlsbad, Calif.). The slides were then washed in Tris buffered saline (TBS), and endogenous peroxidase was blocked for 5 min in 3% H2O2 diluted in methanol. After washes in TBS, sections were treated with 1×TdT equilibration buffer at room temperature for 30 min and subsequently incubated with TdT labelling reaction mix ([…]) for 1.5 h at 37° C. The slides were rinsed in TBS and mounted using Fluorein-FragEL mounting media, then sealed with nail polish. The number of TUNEL-positive cells was counted on each section at ×200 under a light microscope.
(§1) In this study, 25 mg TE was administered […] to each rat on days 1 and 7. 50 μL of 4700 U/mL (0.18 mg/mL) MVL-PH20F40 and 50 μL MVL-Vehicle were administered intraprostatically on day 7. […]

Data set [3] concerns TE-induced rat prostatic hyperplasia. The data set can be described thus: Rat model of TE-induced prostatic hyperplasia: prostate weight. It counts as in vivo. The method, then:
In this example, the ability of testosterone enanthate (TE) to induce prostatic hyperplasia in rat prostate was examined. Briefly, twenty-five (25) 8-week old male Sprague-Dawley rats (Harlan, USA) were dosed by intramuscular injection with 25 mg TE (Lot#80G010A, Abraxis Bioscience, Phoenix, Ariz.) per rat, once a week, on days 0, 7, 14 and 21. Five (5) out of 25 rats were sacrificed pre-TE treatment and 5 of the remaining 20 rats were sacrificed weekly. The ventral lobes of the prostates were harvested for analysis. […] Additionally, the increase in rat prostatic weight was linearly related to sustained TE exposure. The half-life of TE in the rat blood was approximately 10.5 days (Anderson R A, J Clin Endocrinol Metab., (1996) 81(3):896-901).
In this example, PEGPH20 was administered to TE-induced prostatic hyperplasic rats to evaluate its effect on prostate weight. Testosterone enanthate was administered by intramuscular injection and PEGPH20 (diluted in normal saline) was administered intravenously. Following treatment, the animals were sacrificed and the ventral lobes of the prostates were harvested for analysis. Prostate weight was measured using an electronic scale.
Testosterone enanthate was administered by intramuscular injection and PEGPH20 (diluted in normal saline) was administered intravenously. Following treatment, the animals were sacrificed and the ventral lobes of the prostates were harvested for analysis. Prostate weight was measured using an electronic scale.
In this example, the time-dependence of treatment of rat BPH with PEGPH20 was evaluated by administering PEGPH20 at various time points. Testosterone enanthate was administered by intramuscular injection and PEGPH20 (diluted in normal saline) was administered intravenously. Following treatment, the animals were sacrificed and the ventral lobes of the prostates were harvested for analysis. Prostate weight was measured using an electronic scale.
In this example, the effect of treatment with PEGPH20 was compared to treatment with finasteride using the rat TE-prostatic hyperplasia model. Testosterone enanthate was administered by intramuscular injection, PEGPH20 (diluted in normal saline) was administered intravenously and finasteride was administered intraperitoneally. On day 21 the animals were sacrificed and the ventral lobes of the prostates were harvested for analysis. Prostate weight was measured using an electronic scale.
In this example, the effect of combination therapy with PEGPH20 and finasteride was evaluated. PEGPH20 was administered at a dose of either 0.82 mg/kg (low dose) or 2 mg/kg (high dose). Testosterone enanthate was administered by intramuscular injection, PEGPH20 (diluted in normal saline) was administered intravenously and finasteride was administered intraperitoneally. On day 21 the animals were sacrificed and the ventral lobes of the prostates were harvested for analysis. Prostate weight was measured using an electronic scale.
Percent (%) inhibition was determined according to the formula: ((Control-treated)/Control)×100. […] The prostatic water content of each group was calculated from the wet weight and the dry weight and found to be the same for all groups (˜80%). Therefore, the change in prostate weight cannot be attributed to decreased tissue water.
Testosterone enanthate was administered by intramuscular injection, PEGPH20 was administered intravenously or by intra-prostatic injection and DepoGel vehicle or DepoPH20 were administered by intra-prostatic injection. On day 21 the animals were sacrificed and the ventral lobes of the prostates were harvested for analysis. Prostate weight was measured using an electronic scale.
as §1

On to `CCCCCCC(=O)O[C@H]1CC[C@H]2[C@@H]3CCC4=CC(=O)CC[C@]4(C)[C@H]3CC[C@]12C` [TE, testosterone enanthate], for which the “Effect on HA” value in data set [1] is recorded as “Increased”. Also, the “Effect on Stroma” value in data set [1] is reported as “Increased proliferation”. The “half-life of TE in the rat blood” value in data set [2] was “approximately 10.5 days”. Also, the “Apoptotic cells/section Mean ± SD” value is 4.6 ± 2.51 cells/section in the data set on prostate stromal cells (TE 7 d) and 1.75 ± 1.71 cells/section in the data set with prostate stromal cells (TE 18 d). For the same compound, the “increase in prostate size” value in data set [3] (25 mg TE per rat im once a week for a month) is listed as about 3 fold. For the same compound, the “Prostatic Weight (g) Mean ± SD” value was 1.54 ± 0.07 g in data set [3] (TE 25 mg/rat days 0, 7, 14, sacrificed day 21); 1.33 ± 0.23 g in data set [3] (group 1: 3 wk TE (25 mg/rat days 0, 7, 14), day 21); 1.49 ± 0.47 g in data set [3] (group 1: TE 25 mg/rat days 0, 7, sacrificed day 28); 1.76 ± 0.18 g in data set [3] (group 2: TE 25 mg/rat days 0, 7, 14, 21, sacrificed day 28); 1.57 ± 0.09 g in data set [3] (group 3: TE 25 mg/rat days 0, 7, sacrificed day 21). For the same compound, the “Prostatic Weight Mean ± SD” value in data set [3] (TE 3 wks (25 mg/rat days 0, 7, 14), day 21) was 1.64 ± 0.12 g. Further, the “increase in prostate weight post TE exposure” value in data set [3] (day 7, TE 25 mg/rat im) is on record as 18.9%; in data set [3] (day 18, TE 25 mg/rat im days 0, 7 and 14), 85.7%.

With `CC(C)(C)NC(=O)[C@H]1CC[C@H]2[C@@H]3CC[C@H]4NC(=O)C=C[C@]4(C)[C@H]3CC[C@]12C` [finasteride, (5α,17β)-N -(1,1-dimethethylethy)-3-oxo-4-azaandrost-1-ene-17-carboxamide], in data set [3] (TE days 0, 7, PEGPH20 0.82 mg/kg iv QOD days 7-20 or finasteride 25 mg/kg ip daily days 7-20, day 21, vs TE alone P<0.01), the “inhibition of prostate growth” value was “approximately 37%”. Further, the “reduction in prostate size relative to vehicle control” value in data set [3] (TE days 1 and 7, finasteride 2.5 mg/kg ip daily starting on day 7) was found to be 18.7%. For the same compound, the “% Inhibit” value in data set [3] (group 4: 3 wk TE, finasteride (25 mg/kg ip daily, 2 wk)) worked out at 25.2%. Moreover, the “Prostatic Weight (g) Mean ± SD” value in data set [3] (group 4: 3 wk TE, finasteride (25 mg/kg ip daily, 2 wk), day 21, P 0.007) was determined as 1.00 ± 0.19 g.

Source of the values: patent US9333244B2, “Composition and lipid formulation of a hyaluronan-degrading enzyme and the use thereof for treatment of benign prostatic hyperplasia” (Halozyme, Inc., priority 2011, dated 2016).
